The values that follow come from ChEMBL document CHEMBL4316626, “N-Acyl pyrazoles: Effective and tunable inhibitors of serine hydrolases” (Bioorg Med Chem, 2019).

The nature of the assay: Inhibition of recombinant rat FAAH deltaTM mutant expressed in Escherichia coli using 14C-labeled oleamide as substrate preincubated for 3 hrs followed by substrate addition and measured by TLC based Dixon-plot analysis. Conditions: read-out: Ki(app).

pKi: −log10 of the molar value.

Turning to `CN(CCN(C)C(=O)n1cc(C#N)cn1)Cc1cccc(Oc2ccccc2)c1`, the pKi (in general, −log10 of the Ki, conventionally taken in molar units) is 8.92.

Take `Cc1cnn(C(=O)OCCCCc2ccccc2)c1`: the pKi is under 5.30.

In the case of `N#Cc1cnn(C(=O)N2CCCN(Cc3cccc(OCc4ccccc4)c3)CC2)c1`, the pKi was 9.15.

For the compound `N#Cc1cnn(C(=O)OCc2ccc(-c3ccccc3)cc2)c1`, the pKi is under 5.30.

Turning to `CC(C)(C)OC(=O)N1CCN(C(=O)n2cccn2)CC1`, the negative logarithm of the Ki (pKi) was 6.47.

Turning to `CC(C)(C)OC(=O)N1CCN(C(=O)n2cc(C#N)cn2)CC1`, the negative-log Ki (pKi) is 7.26.

For the compound `COC(=O)c1cnn(C(=O)N2CCN(Cc3ccc4ccccc4c3)CC2)c1`, the pKi was 9.44.

Turning to `Cc1cnn(C(=O)OCc2ccc3ccccc3c2)c1`, the pKi was under 5.30.

In the case of `Cc1cnn(C(=O)OCc2ccc(-c3ccccc3)cc2)c1`, the pKi is under 5.30.

For `O=C(Nc1ccc2ccccc2c1)n1cccn1`, the pKi is under 5.30.

`CN(CCN(C)C(=O)n1cccn1)C(=O)OC(C)(C)C`: the pKi was 7.10.

For the compound `N#Cc1cnn(C(=O)NCc2ccc3ccccc3c2)c1`, the negative logarithm of the Ki (pKi) was under 5.30.

Turning to `Cc1cnn(C(=O)N2CCN(Cc3ccc(-c4ccccc4)cc3)CC2)c1`, the pKi is 6.77.

Turning to `N#Cc1cnn(C(=O)NCCCCCc2ccccc2)c1`, the pKi was 7.74.

Turning to `Cc1cnn(C(=O)OCc2ccc(OCc3ccccc3)cc2)c1`, the pKi was 5.90.

With `Cc1cnn(C(=O)CCCCCCc2ccccc2)c1`, the pKi is under 5.30.

Take `Cc1cnn(C(=O)NCc2ccc(Oc3ccccc3)cc2)c1`: the pKi was 6.54.

As to `CN(CCN(C)C(=O)n1cccn1)Cc1ccc(Oc2ccccc2)cc1`, the pKi is 8.00.

With `Cc1cnn(C(=O)N(C)CCN(C)Cc2cccc(Oc3ccccc3)c2)c1`, the pKi is 7.70.

Consider `Cc1cnn(C(=O)N2CCN(Cc3ccc(Oc4ccccc4)cc3)CC2)c1`, for which the pKi is 6.68.

Take `Cc1cnn(C(=O)N2CCCN(Cc3cccc(OCc4ccccc4)c3)CC2)c1`: the pKi is 6.68.

`N#Cc1cnn(C(=O)CCCCCCc2ccccc2)c1`: the pKi was under 5.30.

In the case of `N#Cc1cnn(C(=O)N2CCCN(Cc3cccc(Oc4ccccc4)c3)CC2)c1`, the pKi is 9.64.

Take `N#Cc1cnn(C(=O)N2CCN(Cc3ccc(Oc4ccccc4)cc3)CC2)c1`: the pKi is 10.00.

As for `Cc1ccc(CNC(=O)n2cc(C#N)cn2)cc1`, the pKi is under 5.30.

Take `N#Cc1cnn(C(=O)N2CCN(Cc3ccccc3)CC2)c1`: the pKi is 7.12.

Regarding `O=C(Cc1ccc(-c2ccccc2)cc1)n1cccn1`, the pKi is under 5.30.

For `Cc1cnn(C(=O)N2CCN(Cc3cccc(Oc4ccccc4)c3)CC2)c1`, the pKi was 7.35.

As for `N#Cc1cnn(C(=O)OCCCc2ccccc2)c1`, the pKi is 5.46.

On to `Cc1cnn(C(=O)N2CCCN(Cc3cccc(Oc4ccccc4)c3)CC2)c1`, for which the pKi was 7.12.

As for `O=C(CCCCc1ccccc1)n1cccn1`, the pKi is under 5.30.

For the compound `O=C(Cc1ccc2ccccc2c1)n1cccn1`, the pKi was under 5.30.

As for `Cc1cnn(C(=O)OCc2ccc(Oc3ccccc3)cc2)c1`, the pKi is 6.24.

Turning to `O=C(OCCCCCc1ccccc1)n1cccn1`, the negative logarithm of the Ki (pKi) is under 5.30.

`Cc1cnn(C(=O)N2CCN(Cc3ccccc3)CC2)c1`: the pKi is 6.60.

For `CN(CCN(C)C(=O)n1cc(C#N)cn1)Cc1ccc(Oc2ccccc2)cc1`, the pKi is 8.70.

For the compound `CC(C)(C)OC(=O)N1CCCN(C(=O)n2cccn2)CC1`, the pKi is 6.21.

Consider `N#Cc1cnn(C(=O)OCc2ccc(Oc3ccccc3)cc2)c1`, for which the pKi was 7.22.

As for `N#Cc1cnn(C(=O)NCc2ccc(-c3ccccc3)cc2)c1`, the pKi was under 5.30.

On to `Cc1cnn(C(=O)OCCCc2ccccc2)c1`, for which the pKi was under 5.30.

Turning to `Cc1cnn(C(=O)N2CCCN(Cc3ccc(Oc4ccccc4)cc3)CC2)c1`, the pKi is 6.96.

Turning to `N#Cc1cnn(C(=O)Nc2ccc3ccccc3c2)c1`, the pKi is under 5.30.

Turning to `N#Cc1cnn(C(=O)NCCCc2ccccc2)c1`, the pKi was 6.47.

With `N#Cc1cnn(C(=O)OCc2ccc(OCc3ccccc3)cc2)c1`, the pKi is 6.84.

`Cc1cnn(C(=O)NCCCc2ccccc2)c1`: the pKi is 5.52.

Take `Cc1ccc(COC(=O)n2cccn2)cc1`: the pKi is under 5.30.

`N#Cc1cnn(C(=O)OCCCCCc2ccccc2)c1`: the pKi was 5.38.

Take `N#Cc1cnn(C(=O)Cc2ccc3ccccc3c2)c1`: the pKi is under 5.30.

For `O=C(OCCCc1ccccc1)n1cccn1`, the pKi was under 5.30.

Turning to `O=C(N1CCCN(Cc2cccc(Oc3ccccc3)c2)CC1)n1cccn1`, the pKi was 8.20.

As for `Cc1cnn(C(=O)Cc2ccc(-c3ccccc3)cc2)c1`, the pKi was under 5.30.

For the compound `O=C(N1CCN(Cc2ccc(Oc3ccccc3)cc2)CC1)n1cccn1`, the pKi was 8.04.

With `O=C(N1CCN(Cc2ccc3ccccc3c2)CC1)n1cc(Br)cn1`, the pKi is 9.33.

With `N#Cc1cnn(C(=O)N2CCN(Cc3cccc(OCc4ccccc4)c3)CC2)c1`, the pKi was 9.82.

Regarding `Cc1ccc(COC(=O)n2cc(C#N)cn2)cc1`, the negative logarithm of the Ki (pKi) is under 5.30.

Regarding `O=C(N1CCN(Cc2cccc(Oc3ccccc3)c2)CC1)n1cccn1`, the pKi was 8.21.

Take `Cc1cnn(C(=O)Oc2ccc3ccccc3c2)c1`: the pKi was under 5.30.

With `N#Cc1cnn(C(=O)OCc2ccc3ccccc3c2)c1`, the pKi was under 5.30.

As for `Cc1cnn(C(=O)Cc2ccc3ccccc3c2)c1`, the pKi is 5.30.

For `N#Cc1cnn(C(=O)Oc2ccc3ccccc3c2)c1`, the negative-log Ki (pKi) was under 5.30.

Turning to `Cc1cnn(C(=O)NCc2ccc(-c3ccccc3)cc2)c1`, the pKi was under 5.30.

`O=C(OCc1ccc(Oc2ccccc2)cc1)n1cccn1`: the pKi was 6.34.

With `O=C(NCCCCc1ccccc1)n1cccn1`, the pKi is 6.54.

Consider `O=C(Oc1ccc2ccccc2c1)n1cccn1`, for which the pKi was under 5.30.

Regarding `CN(CCN(C)C(=O)n1cc(C#N)cn1)C(=O)OC(C)(C)C`, the pKi is 7.80.

As to `O=C(OCc1ccc(OCc2ccccc2)cc1)n1cccn1`, the pKi is 6.59.

For `O=C(NCc1ccc(Oc2ccccc2)cc1)n1cccn1`, the pKi is 6.74.

As to `Cc1cnn(C(=O)N2CCN(Cc3cccc(OCc4ccccc4)c3)CC2)c1`, the pKi is 7.60.

On to `Cc1cnn(C(=O)N(C)CCN(C)Cc2ccc(Oc3ccccc3)cc2)c1`, for which the pKi is 7.26.

Take `O=C(N1CCCN(Cc2cccc(OCc3ccccc3)c2)CC1)n1cccn1`: the pKi is 7.92.

Turning to `N#Cc1cnn(C(=O)CCCCCc2ccccc2)c1`, the pKi was under 5.30.

Consider `N#Cc1cnn(C(=O)NCCCCc2ccccc2)c1`, for which the pKi was 7.74.

In the case of `CC(C)(C)OC(=O)N1CCCN(C(=O)n2cc(C#N)cn2)CC1`, the pKi was 7.30.

With `Cc1cnn(C(=O)NCc2ccc3ccccc3c2)c1`, the pKi was under 5.30.

For `O=C(N1CCN(Cc2ccc3ccccc3c2)CC1)n1cc(I)cn1`, the pKi was 9.54.

As to `Cc1cnn(C(=O)OCCCCCc2ccccc2)c1`, the pKi is under 5.30.

With `O=C(N1CCCN(Cc2ccc(Oc3ccccc3)cc2)CC1)n1cccn1`, the pKi is 8.03.

`CN(CCN(C)C(=O)n1cccn1)Cc1cccc(Oc2ccccc2)c1`: the pKi was 8.24.

As for `N#Cc1cnn(C(=O)OCCCCc2ccccc2)c1`, the pKi is 6.68.

For `Cc1cnn(C(=O)N2CCN(C(=O)OC(C)(C)C)CC2)c1`, the pKi is 6.07.

On to `O=C(NCCCc1ccccc1)n1cccn1`, for which the pKi was 6.01.

As to `O=C(OCc1ccc(-c2ccccc2)cc1)n1cccn1`, the pKi is under 5.30.

As to `Cc1ccc(COC(=O)n2cc(C)cn2)cc1`, the pKi was under 5.30.

As to `O=C(CCCCCc1ccccc1)n1cccn1`, the pKi is under 5.30.

`O=C(NCCCCCc1ccccc1)n1cccn1`: the pKi was 6.55.

For `Cc1cnn(C(=O)NCCCCc2ccccc2)c1`, the pKi is 6.26.

As for `O=C(CCCCCCc1ccccc1)n1cccn1`, the pKi was under 5.30.

Consider `N#Cc1cnn(C(=O)Cc2ccc(-c3ccccc3)cc2)c1`, for which the pKi is under 5.30.

In the case of `O=C(N1CCN(Cc2ccccc2)CC1)n1cccn1`, the pKi is 6.74.

On to `Cc1ccc(CNC(=O)n2cccn2)cc1`, for which the pKi was under 5.30.

Take `Cc1cnn(C(=O)N(C)CCN(C)C(=O)OC(C)(C)C)c1`: the pKi was 6.15.

As for `Cc1cnn(C(=O)CCCCc2ccccc2)c1`, the pKi is under 5.30.

Regarding `N#Cc1cnn(C(=O)N2CCCN(Cc3ccc(Oc4ccccc4)cc3)CC2)c1`, the pKi is 9.00.

In the case of `N#Cc1cnn(C(=O)N2CCN(Cc3ccc(-c4ccccc4)cc3)CC2)c1`, the pKi was 9.72.

Consider `Cc1ccc(CNC(=O)n2cc(C)cn2)cc1`, for which the pKi is under 5.30.

On to `Cc1cnn(C(=O)N2CCCN(C(=O)OC(C)(C)C)CC2)c1`, for which the pKi is 5.54.

On to `O=C(N1CCN(Cc2ccc(-c3ccccc3)cc2)CC1)n1cccn1`, for which the pKi was 7.92.

Turning to `N#Cc1cnn(C(=O)N2CCN(Cc3cccc(Oc4ccccc4)c3)CC2)c1`, the pKi was 9.72.

On to `O=C(OCc1ccc2ccccc2c1)n1cccn1`, for which the pKi is under 5.30.

For the compound `O=C(NCc1ccc(-c2ccccc2)cc1)n1cccn1`, the pKi is under 5.30.

`Cc1cnn(C(=O)Nc2ccc3ccccc3c2)c1`: the pKi is under 5.30.

`O=C(OCCCCc1ccccc1)n1cccn1`: the pKi is 6.15.

Consider `O=C(NCc1ccc2ccccc2c1)n1cccn1`, for which the pKi was under 5.30.

For the compound `O=C(N1CCN(Cc2cccc(OCc3ccccc3)c2)CC1)n1cccn1`, the pKi is 8.24.

In the case of `Cc1cnn(C(=O)CCCCCc2ccccc2)c1`, the pKi was under 5.30.

Consider `N#Cc1cnn(C(=O)CCCCc2ccccc2)c1`, for which the pKi is under 5.30.

In the case of `Cc1cnn(C(=O)NCCCCCc2ccccc2)c1`, the pKi is 6.25.

Regarding `N#Cc1cnn(C(=O)NCc2ccc(Oc3ccccc3)cc2)c1`, the pKi was 8.01.
